Laboratory results taken from patent US8512940B2, “Method for preserving liver in a solution comprising dibutyryl cAMP” (Otsuka Pharmaceutical Factory, Inc., priority 2005, dated 2013).

System: liver grafts
Assay type: in vivo
Details: content in ET-K+db-cAMP (2 mM) preservation solution, liver transplanted without final rinsing
Procedure: Eight-week-old inbred male Lewis rat (SLC) was housed in a chip-bedded cage at room temperature under a 12 hr light/dark cycle and given free access to a standard chow diet and water before operation.
Group I: UW solution group (n=8), Group II: New ET-K solution group (n=6), Group III: modified New ET-K solution group (n=8). The liver was preserved under cooling in each preservation solution for 24 hr, and then syngeneic liver transplantation was performed. Rats were randomly assigned to each group.
In the UW group, the blood in the donor liver portal vein blood vessel was first replaced with 10 ml of Ringer's solution, and then the blood vessel was perfused with 10 ml of UW solution. In the New ET-K group and the modified New ET-K group, the blood in the donor liver portal vein blood vessel was directly replaced with 20 ml of each preservation solution. In all groups, the perfusion with the preservation solution was performed at a pressure of 15 cmH2O. Then, liver grafts were preserved in respective preservation solutions at 4° C. for 24 hr. […]
In the same manner as in Example 1, syngenic liver transplantation was performed on 8-week-old inbred male Lewis rats (SLC), and the survival rate after transplantation of the liver preserved in preservation solutions containing various concentrations of nitroglycerin (NTG) was evaluated. […]

## O=[N+]([O-])OCC(CO[N+](=O)[O-])O[N+](=O)[O-] [nitroglycerin]
  nitroglycerin content at which toxicity due to nitroglycerin is hardly expressed: not more than 0.0044 mM
